biological target: T1, human MC2R (Homo sapiens, UniProt Q01718); assay: Measurement of human MC2R inhibitory activity using intracellular cAMP concentration as an indicator; type: cell-based; conditions: test compound at 1 µM; GeneBLAzer MC2R-CRE-bla CHO-K1 cells; ACTH (Human 1-24) final concentration 3 pM; intracellular cAMP by HTRF; read-out: MC2R inhibition rate (% of inhibition)
T1 construct: host or cells: GeneBLAzer MC2R-CRE-bla CHO-K1 cells
Procedure: Experimental Example 1: Measurement of human MC2R inhibitory activity using intracellular cAMP concentration as an indicator
GeneBLAzer MC2R-CRE-bla CHO-K1 cells (Thermo Fisher Scientific) that had been cryopreserved in advance were thawed and suspended in a medium [Dulbecco's Modified Eagle Medium (Thermo Fisher Scientific) containing fetal bovine serum (10% (v/v), HyClone Laboratories), Non-Essential Amino Acids Solution (1/100 (w/w), Thermo Fisher Scientific), HEPES (25 mM, Thermo Fisher Scientific), Penicillin/Streptomycin (1/100 (w/w), Fujifilm Wako)]. After centrifuging the cell suspension, the supernatant was removed, the cells were suspended in D-PBS(-) (Fujifilm Wako), and the supernatant was removed again after centrifugation. The cells were resuspended in an assay buffer [Hank's Balanced Salt Solution (Thermo Fisher Scientific) containing HEPES pH 7.5 (10 mM, Thermo Fisher Scientific), fatty acid-free bovine serum albumin (0.01% (w/v), Sigma), IBMX (500 µM, Fujifilm Wako)] and added to a 384-well white plate (Greiner) at 1,500 cells/well. Then, the test compound prepared using the assay buffer was added, and after standing for 20 min, an assay buffer containing ACTH (Human 1-24) (Peptide Institute) was added (ACTH final concentration, 3 pM). After standing at room temperature for 30 min, the intracellular cAMP level was measured using cAMP Gs HiRange kit HTRF (PerkinElmer). The inhibition rate (%) of the compound against MC2R was calculated using the following formula. Inhibition rate (%) = […] [formula] • A: cAMP concentration calculated from wells containing 3 pM ACTH (1-24) • B: cAMP concentration calculated from wells without addition of 3 pM ACTH (1-24) • C: cAMP concentration calculated from wells containing 3 pM ACTH (1-24) and test compound at concentration determined in advance

T1 sequence (Q01718 whole entry): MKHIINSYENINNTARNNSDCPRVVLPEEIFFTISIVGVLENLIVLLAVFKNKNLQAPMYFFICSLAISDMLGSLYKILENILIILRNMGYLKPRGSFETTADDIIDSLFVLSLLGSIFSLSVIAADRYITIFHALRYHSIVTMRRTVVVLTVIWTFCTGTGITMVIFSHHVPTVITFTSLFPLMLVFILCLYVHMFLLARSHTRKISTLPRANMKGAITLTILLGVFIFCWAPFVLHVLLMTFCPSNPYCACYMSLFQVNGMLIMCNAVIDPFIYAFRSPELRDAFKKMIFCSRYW
T1 sequence (Q8TCY5 whole entry partner): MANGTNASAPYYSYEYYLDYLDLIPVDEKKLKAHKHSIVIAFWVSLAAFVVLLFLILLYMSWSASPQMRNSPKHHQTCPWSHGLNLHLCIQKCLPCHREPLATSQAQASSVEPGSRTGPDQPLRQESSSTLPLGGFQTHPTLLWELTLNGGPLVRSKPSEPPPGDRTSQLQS

| SMILES | inhibition at 1 µM [%] |
| --- | --- |
| CCOc1ncccc1-c1ccc(N2CCN3C(=O)N(c4ccc(Cl)cc4C(F)(F)F)C[C@@H]3C2)c(C(=O)NCCCn2cccn2)n1 [Example 22, 3-[(8aS)-2-[4-chloro-2-(trifluoromethyl)phenyl]-3-oxo-5,6,8,8a-tetrahydro-1H-imidazo[1,5-a]pyrazin-7-yl]-6-(2-ethoxypyridin-3-yl)-N-(3-pyrazol-1-ylpropyl)pyridine-2-carboxamide] | 100 |
| CCOc1ncccc1-c1ccc(N2CCN3C(=O)N(c4ccc(Cl)cc4C(F)(F)F)C[C@@H]3C2)c(C(=O)NCCC2CCN(C(=O)OC(C)(C)C)CC2)n1 [Example 21, tert-butyl 4-[2-[[3-[(8aS)-2-[4-chloro-2-(trifluoromethyl)phenyl]-3-oxo-5,6,8,8a-tetrahydro-1H-imidazo[1,5-a]pyrazin-7-yl]-6-(2-ethoxypyridin-3-yl)pyridine-2-carbonyl]amino]ethyl]piperidine-1-carboxylate] | 82 |
| CCOc1ncccc1-c1ccc(N2C[C@H]3CN(C4(C(F)(F)F)CC4)C(=O)N3C[C@H]2CC)c(C(=O)N[C@@H]2CC(=O)N(C)C2)n1 [Example 59, 3-[(6R,8aS)-6-ethyl-3-oxo-2-[1-(trifluoromethyl)cyclopropyl]-5,6,8,8a-tetrahydro-1H-imidazo[1,5-a]pyrazin-7-yl]-6-(2-ethoxy-3-pyridinyl)-N-[(3R)-1-methyl-5-oxopyrrolidin-3-yl]pyridine-2-carboxamide] | 87 |
| CCOc1ncccc1-c1ccc(N2CCN3C(=O)N(c4ccc(Cl)cc4C(F)(F)F)C[C@@H]3C2)c(C(=O)NCCC2CCOCC2)n1 [Example 13, 3-[(8aS)-2-[4-chloro-2-(trifluoromethyl)phenyl]-3-oxo-5,6,8,8a-tetrahydro-1H-imidazo[1,5-a]pyrazin-7-yl]-6-(2-ethoxypyridin-3-yl)-N-[2-(oxan-4-yl)ethyl]pyridine-2-carboxamide] | 99 |
| CCOc1ncccc1-c1ccc(N2C[C@H]3CN(c4ccc(Cl)cc4C#N)C(=O)N3C[C@H]2CC)c(C(=O)N[C@@H]2CC(=O)N(C)C2)n1 [Example 54, 3-[(6R,8aS)-2-(4-chloro-2-cyanophenyl)-6-ethyl-3-oxo-5,6,8,8a-tetrahydro-1H-imidazo[1,5-a]pyrazin-7-yl]-6-(2-ethoxypyridin-3-yl)-N-[(3R)-1-methyl-5-oxopyrrolidin-3-yl]pyridine-2-carboxamide] | 100 |
| CCOc1ncccc1-c1ccc(N2CCN3C(=O)N(c4ccc(Cl)cc4C(F)(F)F)C[C@@H]3C2)c(C(=O)NC2CCN(C(=O)OC(C)(C)C)C2)n1 (stereo partly drawn) [Example 17, tert-butyl 3-[[3-[(8aS)-2-[4-chloro-2-(trifluoromethyl)phenyl]-3-oxo-5,6,8,8a-tetrahydro-1H-imidazo[1,5-a]pyrazin-7-yl]-6-(2-ethoxypyridin-3-yl)pyridine-2-carbonyl]amino]pyrrolidine-1-carboxylate] | 91 |
| CCOc1ncccc1-c1ccc(N2C[C@H]3CN(c4ccc(F)cc4C#N)C(=O)N3C[C@H]2CC)c(C(=O)N[C@H]2CNC(=O)C2)n1 [Example 55, 3-[(6R,8aS)-2-(2-cyano-4-fluorophenyl)-6-ethyl-3-oxo-5,6,8,8a-tetrahydro-1H-imidazo[1,5-a]pyrazin-7-yl]-6-(2-ethoxypyridin-3-yl)-N-[(3R)-5-oxopyrrolidin-3-yl]pyridine-2-carboxamide] | 100 |
| CCOc1ccccc1-c1ccc(N2C[C@H]3CN(c4ccc(Cl)cc4C(F)(F)F)C(=O)N3C[C@H]2C)c(C(=O)N[C@@H]2CC(=O)N(C)C2)n1 [Example 63, 3-[(6R,8aS)-2-[4-chloro-2-(trifluoromethyl)phenyl]-6-methyl-3-oxo-5,6,8,8a-tetrahydro-1H-imidazo[1,5-a]pyrazin-7-yl]-6-(2-ethoxyphenyl)-N-[(3R)-1-methyl-5-oxopyrrolidin-3-yl]pyridine-2-carboxamide] | 100 |

Other lines, results leading:

| inhibition at 1 µM [%] | SMILES |
| --- | --- |
| 99 | CCOc1ncccc1-c1ccc(N2CCN3C(=O)N(c4ccc(Cl)cc4C(F)(F)F)C[C@@H]3C2)c(C(=O)NC2CCOC2)n1 (stereo partly drawn) [Example 20, 3-[(8aS)-2-[4-chloro-2-(trifluoromethyl)phenyl]-3-oxo-5,6,8,8a-tetrahydro-1H-imidazo[1,5-a]pyrazin-7-yl]-6-(2-ethoxypyridin-3-yl)-N-(oxolan-3-yl)pyridine-2-carboxamide] |
| 100 | CCOc1ncccc1-c1ccc(N2CCN3C(=O)N(c4ccc(Cl)cc4C(F)(F)F)C[C@@H]3C2)c(C(=O)NCCOC)n1 [Example 12, 3-[(8aS)-2-[4-chloro-2-(trifluoromethyl)phenyl]-3-oxo-5,6,8,8a-tetrahydro-1H-imidazo[1,5-a]pyrazin-7-yl]-6-(2-ethoxypyridin-3-yl)-N-(2-methoxyethyl)pyridine-2-carboxamide] |
| 100 | CCOc1ncccc1-c1ccc(N2C[C@H]3CN(c4ccc(F)cc4C(F)(F)F)C(=O)N3C[C@H]2CC)c(C(=O)N[C@H]2CNC(=O)C2)n1 [Example 51, 3-[(6R,8aS)-6-ethyl-2-[4-fluoro-2-(trifluoromethyl)phenyl]-3-oxo-5,6,8,8a-tetrahydro-1H-imidazo[1,5-a]pyrazin-7-yl]-6-(2-ethoxypyridin-3-yl)-N-[(3R)-5-oxopyrrolidin-3-yl]pyridine-2-carboxamide] |
| 100 | CCOc1ncccc1-c1ccc(N2C[C@H]3CN(c4ccc(Cl)cc4C(F)(F)F)C(=O)N3C[C@H]2CC)c(C=O)n1 [Example 10, 3-[(6R,8aS)-2-[4-chloro-2-(trifluoromethyl)phenyl]-6-ethyl-3-oxo-5,6,8,8a-tetrahydro-1H-imidazo[1,5-a]pyrazin-7-yl]-6-(2-ethoxypyridin-3-yl)pyridine-2-carbaldehyde] |
| 100 | CCOc1ncccc1-c1ccc(N2C[C@H]3CN(c4ccc(Cl)cc4C(F)(F)F)C(=O)N3C[C@H]2CC)c(C(=O)N[C@H](C)C(=O)NC)n1 [Example 40, 3-[(6R,8aS)-2-[4-chloro-2-(trifluoromethyl)phenyl]-6-ethyl-3-oxo-5,6,8,8a-tetrahydro-1H-imidazo[1,5-a]pyrazin-7-yl]-6-(2-ethoxypyridin-3-yl)-N-[(2R)-1-(methylamino)-1-oxopropan-2-yl]pyridine-2-carboxamide] |
| 100 | CCOc1ncccc1-c1ccc(N2CCN3C(=O)N(c4ccc(Cl)cc4C(F)(F)F)C[C@@H]3C2)c(C(=O)NCC2(O)CC2)n1 [Example 16, 3-[(8aS)-2-[4-chloro-2-(trifluoromethyl)phenyl]-3-oxo-5,6,8,8a-tetrahydro-1H-imidazo[1,5-a]pyrazin-7-yl]-6-(2-ethoxypyridin-3-yl)-N-[(1-hydroxycyclopropyl)methyl]pyridine-2-carboxamide] |
| 100 | CCOc1ncccc1-c1ccc(N2C[C@H]3CN(c4ccc(Cl)cc4C(F)(F)F)C(=O)N3C[C@H]2CC)c(C(=O)NCC(C)(C)O)n1 [Example 35, 3-[(6R,8aS)-2-[4-chloro-2-(trifluoromethyl)phenyl]-6-ethyl-3-oxo-5,6,8,8a-tetrahydro-1H-imidazo[1,5-a]pyrazin-7-yl]-6-(2-ethoxypyridin-3-yl)-N-(2-hydroxy-2-methylpropyl)pyridine-2-carboxamide] |
| 97 | CCOc1ncccc1-c1ccc(N2CCN3C(=O)N(c4ccc(Cl)cc4C(F)(F)F)C[C@@H]3C2)c(C(=O)NCC2CCOCC2)n1 [Example 11, 3-[(8aS)-2-[4-chloro-2-(trifluoromethyl)phenyl]-3-oxo-5,6,8,8a-tetrahydro-1H-imidazo[1,5-a]pyrazin-7-yl]-6-(2-ethoxypyridin-3-yl)-N-(oxan-4-ylmethyl)pyridine-2-carboxamide] |

— patent EP4714953A1, “MELANOCORTIN 2-TYPE RECEPTOR ANTAGONIST” (Scohia Pharma, Inc., priority 2023, dated 2024)
